Assay results as given in US20050107386A1, “Methods of treating diseases and disorders by targeting multiple kinases” (priority 2003, published 2005).

Experiments:
Type in all cases: biochemical
Conditions in all cases: 3 μM; percent of control kinase activity
FGFR3(h) = FGFR3(h) (Homo sapiens, UniProt P22607); assay: FGFR3(h) kinase assay
Protocol: (§1) Six compounds (presumptive single agents) were tested against a panel of 50 kinases. The results are presented in Table 2; numbers for each kinase indicate the percent of control kinase activity in the presence of a 3μM concentration of the indicated agent.
(§2) Agents that target two or more different kinases are useful in the methods of the invention as described elsewhere herein. Such compounds may be identified, and their effect on certain kinases may be identified, using the assays briefly described below in Examples 4-83. Each of these assays was carried out as described in Davies et al., Biochem. J., 351:95-105 (2000). All assays were carried out at 10 μM ATP unless otherwise noted.
(§3) In a final reaction volume of 25 μl, FGFR3 (h) (5-10 mU) is incubated with 50 mM Tris pH 7.5, 0.1 mM EGTA, 0.1 mM NaVanadate, 0.1% β-mercaptoethanol, 0.1 mg/ml poly(Glu, Tyr) 4:1, 10 mM MnCl2, 10 mM MgAcetate and [γ-^33P-ATP] (specific activity approx. 500 cpm/pmol, concentration as required). The reaction is initiated by the addition of Mg^2+ [γ-^33P-ATP]. After incubation for 40 minutes at room temperature, the reaction is stopped by the addition of 5 μl of a 3% phosphoric acid solution. 10 μl of the reaction is then spotted onto a Filtermat A and washed three times for 5 minutes in 75 mM phosphoric acid and once in methanol prior to drying and scintillation counting.

Fes(h) = Fes(h) (Homo sapiens, UniProt P07332); assay: Fes(h) kinase assay
Chain of Fes(h) (P07332 whole entry): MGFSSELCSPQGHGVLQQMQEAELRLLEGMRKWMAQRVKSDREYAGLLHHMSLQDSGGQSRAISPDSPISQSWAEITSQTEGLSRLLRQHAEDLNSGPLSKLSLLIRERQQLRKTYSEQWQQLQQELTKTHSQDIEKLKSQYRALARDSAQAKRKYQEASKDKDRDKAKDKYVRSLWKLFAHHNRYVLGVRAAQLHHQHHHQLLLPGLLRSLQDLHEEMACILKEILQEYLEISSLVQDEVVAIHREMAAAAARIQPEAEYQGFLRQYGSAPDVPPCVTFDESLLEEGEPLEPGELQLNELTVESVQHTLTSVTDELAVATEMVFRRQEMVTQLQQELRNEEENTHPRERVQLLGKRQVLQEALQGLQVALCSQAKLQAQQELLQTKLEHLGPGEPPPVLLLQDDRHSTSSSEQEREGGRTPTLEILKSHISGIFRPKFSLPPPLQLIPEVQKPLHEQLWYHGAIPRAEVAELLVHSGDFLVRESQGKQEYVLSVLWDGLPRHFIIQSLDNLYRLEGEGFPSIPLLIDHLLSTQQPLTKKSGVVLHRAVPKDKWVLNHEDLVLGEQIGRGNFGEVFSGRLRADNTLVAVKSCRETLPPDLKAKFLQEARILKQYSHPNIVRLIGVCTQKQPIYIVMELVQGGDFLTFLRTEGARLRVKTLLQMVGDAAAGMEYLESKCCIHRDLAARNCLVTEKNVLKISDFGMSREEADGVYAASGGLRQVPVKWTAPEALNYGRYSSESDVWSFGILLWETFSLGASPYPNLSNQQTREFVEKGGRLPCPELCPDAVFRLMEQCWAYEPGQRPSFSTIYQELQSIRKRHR
Protocol: as §1, §2
as §3, with “μl, Fes(h)” for “μl, FGFR3 (h)”, “with 8” for “with 50”, “mM MOPS” for “mM Tris”, “pH 7.0, 0.2” for “pH 7.5, 0.1”, “mM EDTA,” for “mM EGTA, 0.1 mM NaVanadate, 0.1% β-mercaptoethanol,”, “4:1,” for “4:1, 10 mM MnCl2,”

MAPKAP-K2(h) = MAPKAP-K2(h) (Homo sapiens, UniProt P49137); assay: MAPKAP-K2(h) kinase assay
Chain of MAPKAP-K2(h) (P49137 whole entry): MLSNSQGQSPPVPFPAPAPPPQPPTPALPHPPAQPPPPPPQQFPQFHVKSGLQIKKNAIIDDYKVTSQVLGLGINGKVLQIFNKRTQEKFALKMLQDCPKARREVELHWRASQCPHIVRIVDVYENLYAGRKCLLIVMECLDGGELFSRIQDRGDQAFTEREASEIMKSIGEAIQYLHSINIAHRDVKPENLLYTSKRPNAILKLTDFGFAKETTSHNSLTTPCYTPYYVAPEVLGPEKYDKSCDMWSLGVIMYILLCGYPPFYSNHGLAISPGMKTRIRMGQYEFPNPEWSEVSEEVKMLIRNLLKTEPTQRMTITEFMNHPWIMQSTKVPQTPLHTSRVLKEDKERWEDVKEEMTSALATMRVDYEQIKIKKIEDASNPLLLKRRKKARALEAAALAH
Protocol: as §1, §2
as §3, with “MAPKAP-K2” for “FGFR3”, “Na-β-glycerophosphate” for “Tris”, “30 μM […] (SEQ ID NO:11),” for “0.1 mM NaVanadate, 0.1% β-mercaptoethanol, 0.1 mg/ml poly(Glu, Tyr) 4:1, 10 mM MnCl2,”, “(Specific” for “(specific”, “P30 filtermat” for “Filtermat A”

CHK2(h) = CHK2(h) (Homo sapiens, UniProt O96017); assay: CHK2(h) kinase assay
Chain of CHK2(h) (O96017 whole entry): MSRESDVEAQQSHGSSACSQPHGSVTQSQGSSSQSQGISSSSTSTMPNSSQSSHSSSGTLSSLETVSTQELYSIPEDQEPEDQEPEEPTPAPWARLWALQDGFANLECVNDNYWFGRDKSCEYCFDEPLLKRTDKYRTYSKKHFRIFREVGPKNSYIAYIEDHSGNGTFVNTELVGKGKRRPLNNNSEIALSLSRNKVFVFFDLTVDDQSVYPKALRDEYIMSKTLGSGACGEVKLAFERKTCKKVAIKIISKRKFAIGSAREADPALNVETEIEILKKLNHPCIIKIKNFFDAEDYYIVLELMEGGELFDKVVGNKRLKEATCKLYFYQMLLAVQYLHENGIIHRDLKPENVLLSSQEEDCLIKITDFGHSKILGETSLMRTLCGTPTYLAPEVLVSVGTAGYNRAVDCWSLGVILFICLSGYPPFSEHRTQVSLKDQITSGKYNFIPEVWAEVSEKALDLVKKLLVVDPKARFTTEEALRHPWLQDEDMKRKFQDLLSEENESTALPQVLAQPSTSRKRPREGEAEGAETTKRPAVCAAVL
Protocol: as §1, §2
as §3, with “μl, CHK2” for “μl, FGFR3”, “with 8” for “with 50”, “mM MOPS” for “mM Tris”, “pH 7.0,0.2” for “pH 7.5, 0.1”, “mM EDTA, 200 μM […] (SEQ ID NO:5),” for “mM EGTA, 0.1 mM NaVanadate, 0.1% β-mercaptoethanol, 0.1 mg/ml poly(Glu, Tyr) 4:1, 10 mM MnCl2,”, “a P30 filtermat” for “a Filtermat A”

PDK1(h) = target: T1, PDK1(h) (Homo sapiens, UniProt O15530); assay: PDK1(h) kinase assay
T1 sequence (O15530 1-556): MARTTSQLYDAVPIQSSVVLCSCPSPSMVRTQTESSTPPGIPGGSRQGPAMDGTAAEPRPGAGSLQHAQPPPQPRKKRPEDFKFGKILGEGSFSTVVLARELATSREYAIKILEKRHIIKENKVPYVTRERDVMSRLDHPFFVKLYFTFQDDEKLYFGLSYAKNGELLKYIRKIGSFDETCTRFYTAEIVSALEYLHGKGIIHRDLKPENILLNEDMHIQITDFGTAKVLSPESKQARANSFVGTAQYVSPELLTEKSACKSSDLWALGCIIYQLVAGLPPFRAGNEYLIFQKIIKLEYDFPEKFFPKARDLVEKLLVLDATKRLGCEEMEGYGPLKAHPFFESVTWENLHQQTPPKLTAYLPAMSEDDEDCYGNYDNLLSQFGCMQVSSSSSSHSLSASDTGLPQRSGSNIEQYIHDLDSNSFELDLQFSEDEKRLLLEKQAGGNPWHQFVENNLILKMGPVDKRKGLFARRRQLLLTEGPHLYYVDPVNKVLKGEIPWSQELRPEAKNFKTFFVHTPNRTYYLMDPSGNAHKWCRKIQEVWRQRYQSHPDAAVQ
Protocol: as §1, §2
as §3, with “PDK1” for “FGFR3”, “100 μM […] (SEQ ID NO:13) (PDKtide),” for “0.1 mM EGTA, 0.1 mM NaVanadate,”, “β-mercaptoethanol,” for “β-mercaptoethanol, 0.1 mg/ml poly(Glu, Tyr) 4:1, 10 mM MnCl2,”, “P30 filtermat” for “Filtermat A”

Rsk2(h) = Rsk2(h) (Homo sapiens, UniProt P51812); assay: Rsk2(h) kinase assay
Chain of Rsk2(h) (P51812 whole entry): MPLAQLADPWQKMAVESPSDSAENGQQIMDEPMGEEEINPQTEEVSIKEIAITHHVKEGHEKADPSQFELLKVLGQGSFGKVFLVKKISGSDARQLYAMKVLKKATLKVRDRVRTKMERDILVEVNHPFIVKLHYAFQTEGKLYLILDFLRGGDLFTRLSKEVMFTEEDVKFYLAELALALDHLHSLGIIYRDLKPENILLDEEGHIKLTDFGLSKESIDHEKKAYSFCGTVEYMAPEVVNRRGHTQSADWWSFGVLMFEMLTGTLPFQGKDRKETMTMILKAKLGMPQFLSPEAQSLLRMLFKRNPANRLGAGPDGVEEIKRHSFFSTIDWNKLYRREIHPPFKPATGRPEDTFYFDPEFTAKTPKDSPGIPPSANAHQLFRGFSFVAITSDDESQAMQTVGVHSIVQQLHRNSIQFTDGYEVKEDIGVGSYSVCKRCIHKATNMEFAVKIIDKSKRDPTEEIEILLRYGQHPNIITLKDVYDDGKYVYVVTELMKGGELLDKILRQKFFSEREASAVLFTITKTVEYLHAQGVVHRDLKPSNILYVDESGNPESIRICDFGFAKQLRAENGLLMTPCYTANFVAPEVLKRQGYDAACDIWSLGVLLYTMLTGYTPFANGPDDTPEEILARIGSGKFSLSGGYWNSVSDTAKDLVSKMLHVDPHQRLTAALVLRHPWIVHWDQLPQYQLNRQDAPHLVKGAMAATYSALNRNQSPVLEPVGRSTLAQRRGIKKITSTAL
Protocol: as §1, §2
as §3, with “μl, Rsk2(h)” for “μl, FGFR3 (h)”, “with 8” for “with 50”, “mM MOPS” for “mM Tris”, “pH 7.0, 0.2” for “pH 7.5, 0.1”, “mM EDTA, 30 μM […] (SEQ ID NO:11),” for “mM EGTA, 0.1 mM NaVanadate, 0.1% β-mercaptoethanol, 0.1 mg/ml poly(Glu, Tyr) 4:1, 10 mM MnCl2,”, “a P30 filtermat” for “a Filtermat A”

Chain of FGFR3(h) (P22607 23-806): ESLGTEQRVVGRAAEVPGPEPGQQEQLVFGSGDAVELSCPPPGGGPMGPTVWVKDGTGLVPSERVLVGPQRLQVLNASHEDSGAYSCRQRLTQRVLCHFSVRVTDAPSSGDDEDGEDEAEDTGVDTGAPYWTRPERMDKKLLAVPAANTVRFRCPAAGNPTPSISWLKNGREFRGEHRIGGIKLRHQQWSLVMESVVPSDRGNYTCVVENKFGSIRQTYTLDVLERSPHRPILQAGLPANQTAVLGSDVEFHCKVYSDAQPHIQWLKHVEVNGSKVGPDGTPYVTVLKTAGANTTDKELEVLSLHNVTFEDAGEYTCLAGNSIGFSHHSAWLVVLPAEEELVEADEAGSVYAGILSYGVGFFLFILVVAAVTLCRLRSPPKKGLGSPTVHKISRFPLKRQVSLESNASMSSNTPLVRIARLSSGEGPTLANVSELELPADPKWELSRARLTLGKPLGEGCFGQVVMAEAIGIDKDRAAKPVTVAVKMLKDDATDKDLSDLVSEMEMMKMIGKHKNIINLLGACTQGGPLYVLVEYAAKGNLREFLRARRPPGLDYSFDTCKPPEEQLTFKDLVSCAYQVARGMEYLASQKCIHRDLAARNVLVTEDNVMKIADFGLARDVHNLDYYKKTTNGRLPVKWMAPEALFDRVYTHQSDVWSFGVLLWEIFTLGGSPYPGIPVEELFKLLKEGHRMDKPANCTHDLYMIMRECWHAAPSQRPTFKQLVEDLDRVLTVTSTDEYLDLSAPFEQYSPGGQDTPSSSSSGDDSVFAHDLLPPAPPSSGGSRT

| SMILES | Inhibitory activity (% of control), FGFR3(h) (FGFR3(h)) | Inhibitory activity (% of control), Fes(h) (Fes(h)) | Inhibitory activity (% of control), MAPKAP-K2(h) (MAPKAP-K2(h)) | Inhibitory activity (% of control), CHK2(h) (CHK2(h)) | Inhibitory activity (% of control), PDK1(h) (PDK1(h)) | Inhibitory activity (% of control), Rsk2(h) (Rsk2(h)) |
| --- | --- | --- | --- | --- | --- | --- |
| CCN1CCC[C@H]1COc1ccc2cc(-c3n[nH]c4ccc(-c5nc(CC(C)(C)C)n[nH]5)cc34)ccc2c1 [CC005, 2-[((2s)-1-ethylpyrrolidin-2-yl)methoxy]-6-{5-[3-(2,2-Dimethylpropyl)(1H-1,2,4,-triazol-5-yl)](1H-indazol-3-yl)}naphthalene] | 5 % of control | 8 % of control | 56 % of control | 1 % of control | 59 % of control | 3 % of control |
| COc1ccc2cc(-c3n[nH]c4ccc(-c5n[nH]c(CN6CCOCC6)n5)cc34)ccc2c1 [CC001, 3-(6-Methoxynaphthalen-2-yl)-5-(5-Morpholin-4-Ylmethyl-1H-[1,2,4]Triazol-3-yl)-1H-Indazole] | 33 % of control | 34 % of control | 97 % of control | 2 % of control | 59 % of control | 6 % of control |
| CC(C)(C)Cc1nc(-c2ccc3[nH]nc(-c4ccc5cc(OCc6ccccn6)ccc5c4)c3c2)n[nH]1 [CC004, 5-[5-(2,2-Dimethyl-propyl)-1H-[1,2,4]triazol-3-yl]-3-[6-(pyridine-2-ylmethoxy)-naphthalen-2-yl]-1H-indazole] | 77 % of control | 70 % of control | 108 % of control | 7 % of control | 70 % of control | 34 % of control |
| O=C(NC1CCCC1)c1cccc(-c2n[nH]c3ccc(-c4nc[nH]n4)cc23)c1 [CC007, 3-(5-(1H-1,2,4-triazol-3-yl)(1H-indazol-3-yl))phenyl-N-cyclopentylcarboxamide, reference compound] | 54 % of control | 41 % of control | 86 % of control | 6 % of control | 97 % of control | 45 % of control |
| CC(C)Cc1nc(-c2ccc3[nH]nc(-c4ccc5cc(OCCN6CCCC6)ccc5c4)c3c2)n[nH]1 [CC002, 5-(5-Isobutyl-1H-[1,2,4]Triazol-3-yl)-3-[6-(2-Pyrrolidin-1-yl-Ethoxy)-Naphthalen-2-yl]-1H-Indazole] | 5 % of control | 10 % of control | 72 % of control | 1 % of control | 58 % of control | 5 % of control |
| Fc1ccc(-c2n[nH]c3ccc(-c4n[nH]c(C5CCCC5)n4)cc23)cc1 [CC006, 5-(5-Cyclopentyl-1H-[1,2,4]triazol-3-yl)-3-(4-fluoro-phenyl)-1H-indazole, reference compound] | 33 % of control | 70 % of control | 96 % of control | 20 % of control | 43 % of control | 31 % of control |
